Experimental data taken from patent US20230263748A1, “APPLICATION OF BENFLUMETOL AND DERIVATIVES THEREOF IN TREATMENT OF CORONAVIRUS INFECTION” (ACADEMY OF MILITARY MEDICAL SCIENCES, priority 2020, published 2023).
Where two headings read alike, the source gives them in different places.

What was measured:
SARS-CoV-2 = assay type: cell-based; details: for Viral genome copy number (MOI = 0.05): supernatant
Vero E6 cells = assay: Detection of drug cytotoxicity by CCK-8 kit; assay type: cell-based; details: for Cell viability (% of negative control): Vero E6, 48 h
Description: The detection of drug cytotoxicity was performed by CCK-8 kit (Beoytime). Specific steps were as follows: • (1) 1×10^4 Vero E6 (ATCC) cells were inoculated in a 96-well plate and cultured at 37° C. for 8 hours. • (2) The drug was diluted with DMSO to obtain a stock solution with an appropriate concentration, and then diluted with MEM medium (purchased from Gibco, Cat. No. 10370021) containing 2% FBS (purchased from Gibco, Cat. No. 16000044) to the same concentration as that for the drug treatment. The original medium in the 96-well plate was discarded, 100 μL of drug-containing MEM medium was added to the cells, and three replicate wells were set for each concentration. Negative control (adding DMSO and medium to the cell wells, without adding drug) and blank control (no cells, adding DMSO and medium) were set. After the drug was added, the cells were cultured at 37° C. for 48 hours. • (3) 20 μL of CCK-8 solution (Beoytime) was added to the wells to be tested, mixed gently without generating air bubbles, and incubation was continued at 37° C. for 2 hours. OD450 was read on a microplate reader (purchased from Molecular Devices, model: SpectraMax M5), and cell viability was calculated:
Cell viability (%)=(A(drug treatment group)−A(blank control))/(A(negative control)−A(blank control))×100% • wherein A represents reading of microplate reader.

CCCCN(CCCC)CC(O)c1cc(Cl)cc2c1-c1ccc(Cl)cc1/C2=C/c1ccc(Cl)cc1 (centres unmarked) [benflumetol]
Viral genome copy number (MOI = 0.05) (SARS-CoV-2; 3.13 μM, Vero E6 cells, 48 h after infection): 125717580
Viral genome copy number (MOI = 0.05) (SARS-CoV-2; 6.25 μM, Vero E6 cells, 48 h after infection): 87462582
Viral genome copy number (MOI = 0.05) (SARS-CoV-2; 12.5 μM, Vero E6 cells, 48 h after infection): 87790130
Viral genome copy number (MOI = 0.05) (SARS-CoV-2; 25 μM, Vero E6 cells, 48 h after infection): 48801530
Viral genome copy number (MOI = 0.05) (SARS-CoV-2; 50 μM, Vero E6 cells, 48 h after infection): 20512679
Viral genome copy number (MOI = 0.05) (SARS-CoV-2; 100 μM, Vero E6 cells, 48 h after infection): 2927366
Inhibition of viral RNA load on cells, dose dependence (in words) (SARS-CoV-2; Vero E6 cells, 48 h after infection, FIG. 1): the inhibitory activity was dose-dependent
Inhibition of replication of the SARS-CoV-2 virus genome in the infection supernatant (in words) (SARS-CoV-2; at 100 μM, 50 μM and 25 μM): effectively inhibit the replication of the SARS-CoV-2 virus genome
Cell viability (% of negative control) (Vero E6 cells; 0.78 μM): 92.88%
Cell viability (% of negative control) (Vero E6 cells; 1.56 μM): 94.55%
Cell viability (% of negative control) (Vero E6 cells; 3.13 μM): 96.69%
Cell viability (% of negative control) (Vero E6 cells; 6.25 μM): 106.70%
Cell viability (% of negative control) (Vero E6 cells; 12.5 μM): 108.69%
Cell viability (% of negative control) (Vero E6 cells; 25 μM): 113.54%
Cell viability (% of negative control) (Vero E6 cells; 50 μM): 115.52%
Cell viability (% of negative control) (Vero E6 cells; 100 μM): 122.12%
Toxic effect on the cells (in words) (Vero E6 cells; all test concentrations): no toxic effect on the cells at all concentrations
